Measured values reported in patent US20260098058A1, “COMPOUND - DIAGNOSTIC MARKER FOR OVARIAN CANCER, METHOD FOR DETECTING ENZYMATIC ACTIVITY, METHOD FOR DIAGNOSIS OF OVARIAN CANCER, KIT COMPRISING THE COMPOUND, USES OF THE COMPOUND AND METHOD FOR THE TREATMENT OF OVARIAN CANCER” (Urteste S.A., priority 2022, published 2026).
Where “and” joins values, the source holds several entries; their conditions need not be identical. Equal entries are not always repeated. Entries after “also recorded” stand apart in the source; their conditions may differ. Starred links: 1 amine or outer side, 2 acyl side, 3 side chain; linkers in the order of their positions; H or OH if unused. Non-standard residues stand in square brackets, D forms with d. No end group written: not given here. Benzoyl(5-NH,2-NO2) = O=C(c1cc(N[*:1])ccc1[N+](=O)[O-])[*:2]; 2Abz = Nc1ccccc1C(=O)O

Assays:
[1] = system: enzymatic (proteolytic) activity in urine from a subject suffering from ovarian cancer; experiment: Absorbance measurement of substrate hydrolysis in urine from subjects with ovarian cancer; assay type: biochemical, human; settings: for Results of absorbance analysis (rate of hydrolysis of the substrate): 405 nm, 37° C., 60 minutes, pH 8.0, triplicate
Experimental: (§1) The activity of the novel compounds according to the invention was studied in a group of 20 subjects diagnosed with ovarian cancer using the representative compound according to the invention. […] The remaining compounds according to the invention are characterized by the analogous mechanism of action. For this purpose, the representative compound according to the invention, ABZ^1-Asp^2-Thr^3-Phe^4-Ile^5-NH2, was dissolved in dimethyl sulfoxide (at a concentration of 0.5 mg/mL) and then […] of the solution was mixed with […] of a buffer (200 mM Tris-HCl, pH 8.0) and […] of urine from a subject suffering from ovarian cancer. The measurement was performed on a 96-well plate designed for measuring absorbance and each sample was analysed in triplicate at the temperature of 37° C. The duration of the measurement was 60 minutes. During the measurement, the wavelength characteristic for the chromophore (ANB-NH2) being released was monitored at the wavelength 405 nm (range 380-430 nm).

[2] = system: urine samples taken from healthy persons (without a cancer diagnosis); experiment: Absorbance measurement of substrate hydrolysis in urine from healthy subjects; assay type: biochemical, human; settings: for Results of absorbance analysis (rate of hydrolysis of the substrate): 405 nm, 37° C., 60 minutes, pH 8.0, triplicate
[3] = system: urine samples from subjects with ovarian cancer or another neoplastic disease; experiment: Selectivity of substrate cleavage by cancer type (urine samples); assay type: biochemical, human; settings: intestine, kidney, prostate, pancreas, stomach, lung, uterine body and liver cancer samples (FIG. 3)
Description: Arabic numerals indicate the numbers of given cancer types. The samples tested for each type of cancer were derived from 20 different patients for each of the tested cancers. The results are mean values for given cancer types.
as §1
Furthermore, the dependence of the cleavage selectivity of the substrate, i.e. the compound according to the invention, on the cancer type being examined, was studied. […]

[4] = system: urine taken from a person diagnosed with ovarian cancer; experiment: RP HPLC analysis of substrate cleavage in urine; assay type: biochemical, human; settings: randomly selected urine sample from a person diagnosed with ovarian cancer (FIG. 1)
[5] = system: enzyme(s) in the studied material; experiment: Dependence of substrate hydrolysis on reaction pH; assay type: biochemical; settings: FIG. 4
Experimental: Furthermore, measurements concerning the dependence of the proteolytic activity of the representative compound according to the invention on the reaction pH were performed.

With “ABZ-Asp-Thr-Phe-Ile-ANB-NH2 ([2Abz]DTFI-{Benzoyl(5-NH,2-NO2)-NH2})” the “colour intensity of the solution (absorbance in time)” value ([1]; all urine samples from persons diagnosed with ovarian cancer (samples 1-20)) was “increased with time”, the “efficiency of cleavage of the substrate between samples” value ([1]; samples 3 and 17 compared with samples 1 or 13) was “less efficiently” and the “Results of absorbance analysis (rate of hydrolysis of the substrate)” value (from here on “Results of absorbance analysis”) ([1]; urine sample 1, ovarian cancer) was 0.0066 and 0.006 and 0.0065. The “Results of absorbance analysis” value ([1]; urine sample 2, ovarian cancer) was 0.052 and 0.042 and 0.051, the “Results of absorbance analysis” value ([1]; urine sample 3, ovarian cancer) was 0.0087 and 0.0088 and 0.0086 and the “Results of absorbance analysis” value ([1]; urine sample 4, ovarian cancer) was 0.0069 and 0.0051 and 0.0067. The “Results of absorbance analysis” value ([1]; urine sample 5, ovarian cancer) was 0.044 and 0.038 and 0.042, the “Results of absorbance analysis” value ([1]; urine sample 6, ovarian cancer) was 0.037 and 0.022 and 0.028 and the “Results of absorbance analysis” value ([1]; urine sample 8, ovarian cancer) was 0.014 and 0.022 and 0.015. For the same substance, the “Results of absorbance analysis” value ([1]; urine sample 9, ovarian cancer) was 0.0088 and 0.0101 and 0.0092, the “Results of absorbance analysis” value ([1]; urine sample 10, ovarian cancer) was 0.009 and 0.0093 and 0.0085 and the “Results of absorbance analysis” value ([1]; urine sample 11, ovarian cancer) was 0.0123 and 0.0112 and 0.0145. The “Results of absorbance analysis” value ([1]; urine sample 12, ovarian cancer) was 0.0216 and 0.021 and 0.0199, the “Results of absorbance analysis” value ([1]; urine sample 13, ovarian cancer) was 0.0045 and 0.0052 and 0.0048 and the “Results of absorbance analysis” value ([1]; urine sample 14, ovarian cancer) was 0.005 and 0.0061 and 0.0058. For the same substance, the “Results of absorbance analysis” value ([1]; urine sample 15, ovarian cancer) was 0.0017 and 0.0015 and 0.0021, the “Results of absorbance analysis” value ([1]; urine sample 16, ovarian cancer) was 0.0079 and 0.0084 and 0.0072 and the “Results of absorbance analysis” value ([1]; urine sample 18, ovarian cancer) was 0.0073 and 0.0068 and 0.0075. For the same substance, the “Results of absorbance analysis” value ([1]; urine sample 19, ovarian cancer) was 0.055 and 0.051 and 0.048, the “Results of absorbance analysis” value ([1]; urine sample 20, ovarian cancer) was 0.0077 and 0.0075 and 0.0081 and the “increase in absorbance within the diagnostic range” value ([2]; 20 urine samples from healthy subjects (Z21 to Z40)) was “no increase in absorbance; also recorded: does not lead to an increase in absorbance”. The “Results of absorbance analysis” value ([2]; urine sample Z21, healthy subject) was 0.000000, the “Results of absorbance analysis” value ([2]; urine sample Z22, healthy subject) was 0.000000 and the “Results of absorbance analysis” value ([2]; urine sample Z23, healthy subject) was 0.000000. The “Results of absorbance analysis” value ([2]; urine sample Z24, healthy subject) was 0.000000, the “Results of absorbance analysis” value ([2]; urine sample Z25, healthy subject) was 0.000000 and the “Results of absorbance analysis” value ([2]; urine sample Z26, healthy subject) was 0.000000. For the same substance, the “Results of absorbance analysis” value ([2]; urine sample Z27, healthy subject) was 0.000000, the “Results of absorbance analysis” value ([2]; urine sample Z28, healthy subject) was 0.000000 and the “Results of absorbance analysis” value ([2]; urine sample Z29, healthy subject) was 0.000000. For the same substance, the “Results of absorbance analysis” value ([2]; urine sample Z30, healthy subject) was 0.000000, the “Results of absorbance analysis” value ([2]; urine sample Z31, healthy subject) was 0.000000 and the “Results of absorbance analysis” value ([2]; urine sample Z32, healthy subject) was 0.000000. The “Results of absorbance analysis” value ([2]; urine sample Z33, healthy subject) was 0.000000, the “Results of absorbance analysis” value ([2]; urine sample Z34, healthy subject) was 0.000000 and the “Results of absorbance analysis” value ([2]; urine sample Z35, healthy subject) was 0.000000. For the same substance, the “Results of absorbance analysis” value ([2]; urine sample Z36, healthy subject) was 0.000000, the “Results of absorbance analysis” value ([2]; urine sample Z37, healthy subject) was 0.000000 and the “Results of absorbance analysis” value ([2]; urine sample Z38, healthy subject) was 0.000000. The “Results of absorbance analysis” value ([2]; urine sample Z39, healthy subject) was 0.000000, the “Results of absorbance analysis” value ([2]; urine sample Z40, healthy subject) was 0.000000 and the “cleavage / increase in absorbance with samples of other cancers” value [3] was “is not subject to cleavage”. The “cleavage products by RP HPLC” value [4] was “cleaves into the peptide fragment ABZ-Asp-Thr-Phe-Ile-OH and the chromophore group of the compound (ANB-NH2)” and the “dependence of the hydrolysis level of the substrate on pH” value [5] was “maximum activity at alkaline pH”.
